Source: ChEMBL document CHEMBL5260845, “Flavone-based arylamides as potential anticancers: Design, synthesis and in vitro cell-based/cell-free evaluations” (2020)
Activity calls are given as the source filed them. The calls are words filed in the database; no cut-off is given here.

Tests used:
CCRF-CEM = assay: Antiproliferative activity against human CCRF-CEM cells assessed as cell growth inhibition at 10 uM by SRB assay; type: functional, cell-based
HL-60 = assay: Antiproliferative activity against human HL-60 cells assessed as cell growth inhibition at 10 uM by SRB assay; type: functional, cell-based
K562 = assay: Antiproliferative activity against human K562 cells assessed as cell growth inhibition at 10 uM by SRB assay; type: functional, cell-based
MOLT-4 = assay: Antiproliferative activity against human MOLT-4 cells assessed as cell growth inhibition at 10 uM by SRB assay; type: functional, cell-based
RPMI-8226 = assay: Antiproliferative activity against human RPMI-8226 cells assessed as cell growth inhibition at 10 uM by SRB assay; type: functional, cell-based
SR = assay: Antiproliferative activity against human SR cells assessed as cell growth inhibition at 10 uM by SRB assay; type: functional, cell-based
EKVX = assay: Antiproliferative activity against human EKVX cells assessed as cell growth inhibition at 10 uM by SRB assay; type: functional
HOP-92 = assay: Antiproliferative activity against human HOP-92 cells assessed as cell growth inhibition at 10 uM by SRB assay; type: functional, cell-based
NCI-H226 = assay: Antiproliferative activity against human NCI-H226 cells assessed as cell growth inhibition at 10 uM by SRB assay; type: functional
NCI-H23 = assay: Antiproliferative activity against human NCI-H23 cells assessed as cell growth inhibition at 10 uM by SRB assay; type: functional
NCI-H522 = assay: Antiproliferative activity against human NCI-H522 cells assessed as cell growth inhibition at 10 uM by SRB assay; type: functional, cell-based
SF-295 = assay: Antiproliferative activity against human SF-295 cells assessed as cell growth inhibition at 10 uM by SRB assay; type: functional, cell-based
UO-31 = assay: Antiproliferative activity against human UO-31 cells assessed as inhibition of cell growth at 10 uM by SRB assay relative to control; type: functional
Hs-578T = assay: Antiproliferative activity against human Hs-578T cells assessed as inhibition of cell growth at 10 uM by SRB assay; type: functional, cell-based
SK-MEL-2 = assay: Antiproliferative activity against human SK-MEL-2 cells assessed as cell growth inhibition at 10 uM by SRB assay relative to control; type: functional; conditions: Homo sapiens, SK-MEL-2, dose 10 µM
A549 = assay: Antiproliferative activity against human A549 cells assessed as cell growth inhibition at 10 uM by SRB assay; type: functional, cell-based
HOP-62 = assay: Antiproliferative activity against human HOP-62 cells assessed as cell growth inhibition at 10 uM by SRB assay; type: functional, cell-based
NCI-H322M = assay: Antiproliferative activity against human NCI-H322M cells assessed as cell growth inhibition at 10 uM by SRB assay; type: functional, cell-based
NCI-H460 = assay: Antiproliferative activity against human NCI-H460 cells assessed as cell growth inhibition at 10 uM by SRB assay; type: functional, cell-based
RXF 393 = assay: Antiproliferative activity against human RXF 393 cells assessed as inhibition of cell growth at 10 uM by SRB assay relative to control; type: functional

SMILES	inhibition (CCRF-CEM)	inhibition (HL-60)	inhibition (K562)	inhibition (MOLT-4)	inhibition (RPMI-8226)	inhibition (SR)	inhibition at 10 µM (EKVX) [%]	inhibition (HOP-92)	inhibition at 10 µM (NCI-H226) [%]	inhibition at 10 µM (NCI-H23) [%]	inhibition (NCI-H522)	inhibition (SF-295)	inhibition (UO-31)	inhibition (Hs-578T)	inhibition at 10 µM (SK-MEL-2) [%]	other results
COc1cc2oc(-c3ccc(NC(=O)c4ccc(Br)cc4)cc3)cc(=O)c2c(OC)c1OC	inactive	inactive	inactive	inactive	inactive	inactive	< 50	Active	< 50	< 50	Active	Active	Active	Active		
COC(=O)c1ccc(C(=O)Nc2cccc(-c3cc(=O)c4c(OC)c(OC)c(OC)cc4o3)c2)cc1	Active	Active	Active	Active	Active	Active	< 50	Active	< 50	< 50	Active	Active	Active	Active	≤ 46	
COc1cc2oc(-c3ccc(NC(=O)c4ccc([N+](=O)[O-])cc4)cc3)cc(=O)c2c(OC)c1OC							< 50	Active	< 50	< 50	Active	Active	Active	Active		
COc1cc2oc(-c3cccc(C(=O)Nc4ccc(C#N)cc4)c3)cc(=O)c2c(OC)c1OC								Active			Active					inhibition (A549): Active; inhibition (EKVX): Active; inhibition (HOP-62): Active; inhibition (NCI-H226): Active; inhibition (NCI-H23): Active; inhibition (NCI-H322M): Active; inhibition (NCI-H460): Active
COc1cc2oc(-c3ccc(NC(=O)c4cccc(C#N)c4)cc3)cc(=O)c2c(OC)c1OC	Active	Active	Active	Active	Active	Active	< 50	Active	< 50	< 50	Active	Active	Active	Active		
COc1cc2oc(-c3cccc(NC(=O)c4ccccc4Br)c3)cc(=O)c2c(OC)c1OC	Active	Active	Active	Active	Active	Active	< 50	Active	< 50	< 50	Active	Active	Active	Active	≤ 46	
COc1cc2oc(-c3cccc(NC(=O)c4ccc(C#N)cc4)c3)cc(=O)c2c(OC)c1OC	Active	Active	Active	Active	Active	Active	< 50	Active	< 50	< 50	Active	Active	Active	Active	≤ 46	inhibition (A549): Active; inhibition (EKVX): Active; inhibition (HOP-62): Active; inhibition (NCI-H226): Active; inhibition (NCI-H23): Active; inhibition (NCI-H322M): Active; inhibition (NCI-H460): Active
COc1cc2oc(-c3ccc(NC(=O)c4ccc(C#N)cc4)cc3)cc(=O)c2c(OC)c1OC							< 50	Active	< 50	< 50	Active	Active	Active	Active		
COc1cc2oc(-c3cccc(NC(=O)c4cccc(C#N)c4)c3)cc(=O)c2c(OC)c1OC	Active	Active	Active	Active	Active	Active	< 50	Active	< 50	< 50	Active	Active	Active	Active	≤ 46	
COc1cc2oc(-c3ccc(NC(=O)c4cccc(Br)c4)cc3)cc(=O)c2c(OC)c1OC	Active	Active	Active	Active	Active	Active	< 50	Active	< 50	< 50	Active	Active	Active	Active		
COc1cc2oc(-c3cccc(C(=O)Nc4ccc(Br)cc4)c3)cc(=O)c2c(OC)c1OC	Active	Active	Active	Active	Active	Active		Active			Active					inhibition (A549): Active; inhibition (EKVX): Active; inhibition (HOP-62): Active; inhibition (NCI-H226): Active; inhibition (NCI-H23): Active; inhibition (NCI-H322M): Active; inhibition (NCI-H460): Active; inhibition (RXF 393): Active
COC(=O)c1ccc(C(=O)Nc2ccc(-c3cc(=O)c4c(OC)c(OC)c(OC)cc4o3)cc2)cc1							< 50	Active	< 50	< 50	Active	Active	Active	Active		
COc1cc2oc(-c3cccc(NC(=O)c4ccc(C(F)(F)F)cc4)c3)cc(=O)c2c(OC)c1OC	Active	Active	Active	Active	Active	Active	< 50	Active	< 50	< 50	Active	Active	Active	Active	≤ 46	
